We go through 21 molecules from patent US11905294B2, “Imidazo[1,5-a]pyrazine derivatives as PI3Kδ inhibitors” (BEIGENE, LTD., priority 2017, dated 2024).

pIC50: −log10 of the molar value.

What all share (type): biochemical
The target of one assay is PI3K (p110α/p85α) (Homo sapiens, UniProt P42336). The experiment in a line: PI3Kα assay (ADP-Glo Kinase Assay). As to conditions: recombinant enzyme; IC50 (nM) or max inhibition (%) at 0.5 μM.
For another assay, the target named is PI3K (p110γ) (Homo sapiens, UniProt P48736). Description: PI3Kγ assay (ADP-Glo Kinase Assay). As to conditions: recombinant enzyme; IC50 (nM) or max inhibition (%) at 0.5 μM.
The target in another assay is PI3K (p110β/p85α) (Homo sapiens, UniProt P42338). Description: PI3Kβ assay (ADP-Glo Kinase Assay). As to conditions: read-out: Enzyme activity IC50 PI3Kβ.
In the next assay the target is PI3K (p110δ/p85α) (Homo sapiens, UniProt O00329). The experiment in a line: PI3Kδ assay (ADP-Glo Kinase Assay). As to conditions: recombinant enzyme; IC50 (nM) or max inhibition (%) at 0.5 μM. Here is the method:
Compounds disclosed herein were tested for inhibition of PI3Kδ kinase activity using commercial ADP-Glo™ Kinase Assay (Promega Corporation) and following the manufacture's instruction. Briefly, recombinant PI3K (p110δ/p85α) enzyme, lipid kinase substrate and a serial dilution of compounds disclosed herein were incubated for 0.5 hr at room temperature. ATP was added to initiate the kinase reaction. After incubation for 1 hr at room temperature, ADP-Glo™ reagent was added to terminate the kinase reaction and deplete the remaining ATP. After incubation for 1 hr at room temperature, kinase detection reagent was added to simultaneously convert ADP to ATP and allow the newly synthesized ATP to be measured using a luciferase/luciferin reaction. After incubation for 0.5 hr at room temperature, the luminescence generated was measured on a PHERAstar FS plate reader (BMG LABTECH). The residual enzyme activity in presence of increasing concentrations of compounds was calculated based on the luminescence. The IC50 for each compound was derived from fitting the data to the four-parameter logistic equation by Graphpad Prism software.

PI3K (p110β/p85α), sequence (P42338 whole entry): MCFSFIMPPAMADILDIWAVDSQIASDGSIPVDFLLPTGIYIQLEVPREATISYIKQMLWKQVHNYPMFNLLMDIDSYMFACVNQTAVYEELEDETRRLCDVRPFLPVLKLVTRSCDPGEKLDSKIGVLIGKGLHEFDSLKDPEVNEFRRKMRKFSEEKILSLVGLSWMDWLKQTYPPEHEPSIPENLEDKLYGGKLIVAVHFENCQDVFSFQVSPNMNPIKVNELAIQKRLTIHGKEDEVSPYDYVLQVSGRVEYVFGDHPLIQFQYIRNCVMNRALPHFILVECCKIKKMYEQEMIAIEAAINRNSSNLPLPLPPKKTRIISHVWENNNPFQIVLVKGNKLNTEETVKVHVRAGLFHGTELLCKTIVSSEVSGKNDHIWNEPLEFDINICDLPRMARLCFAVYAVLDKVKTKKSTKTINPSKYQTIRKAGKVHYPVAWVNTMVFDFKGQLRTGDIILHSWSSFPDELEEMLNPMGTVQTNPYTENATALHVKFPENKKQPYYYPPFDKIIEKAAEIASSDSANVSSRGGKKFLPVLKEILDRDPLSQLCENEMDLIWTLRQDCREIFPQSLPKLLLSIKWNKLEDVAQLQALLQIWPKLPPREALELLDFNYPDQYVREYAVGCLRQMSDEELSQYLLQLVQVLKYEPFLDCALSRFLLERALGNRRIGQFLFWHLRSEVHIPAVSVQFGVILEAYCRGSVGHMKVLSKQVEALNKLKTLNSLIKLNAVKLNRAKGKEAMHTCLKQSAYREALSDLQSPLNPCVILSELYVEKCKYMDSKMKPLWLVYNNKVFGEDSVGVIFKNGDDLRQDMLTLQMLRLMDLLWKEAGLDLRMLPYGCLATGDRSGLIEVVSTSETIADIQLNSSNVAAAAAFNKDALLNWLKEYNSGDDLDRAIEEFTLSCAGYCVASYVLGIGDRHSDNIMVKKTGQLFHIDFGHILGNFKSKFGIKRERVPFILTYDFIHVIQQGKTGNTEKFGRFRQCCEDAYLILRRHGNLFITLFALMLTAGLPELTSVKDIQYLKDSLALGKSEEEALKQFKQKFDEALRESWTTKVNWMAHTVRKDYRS
PI3K (p110β/p85α), sequence (P27986 whole entry partner): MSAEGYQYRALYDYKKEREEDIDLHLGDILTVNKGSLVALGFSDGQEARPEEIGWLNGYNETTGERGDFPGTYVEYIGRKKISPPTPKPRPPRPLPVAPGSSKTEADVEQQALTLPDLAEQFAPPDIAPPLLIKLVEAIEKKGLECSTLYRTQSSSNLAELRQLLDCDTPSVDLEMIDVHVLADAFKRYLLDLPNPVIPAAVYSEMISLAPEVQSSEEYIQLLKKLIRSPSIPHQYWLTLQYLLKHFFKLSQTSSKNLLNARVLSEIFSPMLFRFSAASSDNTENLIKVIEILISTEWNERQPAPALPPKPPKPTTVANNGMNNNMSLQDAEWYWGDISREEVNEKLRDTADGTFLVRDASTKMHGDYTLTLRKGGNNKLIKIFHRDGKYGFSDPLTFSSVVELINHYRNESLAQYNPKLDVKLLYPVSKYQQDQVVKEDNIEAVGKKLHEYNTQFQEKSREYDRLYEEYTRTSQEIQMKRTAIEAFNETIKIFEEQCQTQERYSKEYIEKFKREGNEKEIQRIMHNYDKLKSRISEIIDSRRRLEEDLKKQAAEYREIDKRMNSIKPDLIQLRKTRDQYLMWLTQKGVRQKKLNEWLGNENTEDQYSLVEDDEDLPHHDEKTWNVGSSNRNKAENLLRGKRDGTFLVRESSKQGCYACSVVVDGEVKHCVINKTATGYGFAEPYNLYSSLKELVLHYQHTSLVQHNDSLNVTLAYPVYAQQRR
PI3K (p110δ/p85α), sequence (O00329 whole entry): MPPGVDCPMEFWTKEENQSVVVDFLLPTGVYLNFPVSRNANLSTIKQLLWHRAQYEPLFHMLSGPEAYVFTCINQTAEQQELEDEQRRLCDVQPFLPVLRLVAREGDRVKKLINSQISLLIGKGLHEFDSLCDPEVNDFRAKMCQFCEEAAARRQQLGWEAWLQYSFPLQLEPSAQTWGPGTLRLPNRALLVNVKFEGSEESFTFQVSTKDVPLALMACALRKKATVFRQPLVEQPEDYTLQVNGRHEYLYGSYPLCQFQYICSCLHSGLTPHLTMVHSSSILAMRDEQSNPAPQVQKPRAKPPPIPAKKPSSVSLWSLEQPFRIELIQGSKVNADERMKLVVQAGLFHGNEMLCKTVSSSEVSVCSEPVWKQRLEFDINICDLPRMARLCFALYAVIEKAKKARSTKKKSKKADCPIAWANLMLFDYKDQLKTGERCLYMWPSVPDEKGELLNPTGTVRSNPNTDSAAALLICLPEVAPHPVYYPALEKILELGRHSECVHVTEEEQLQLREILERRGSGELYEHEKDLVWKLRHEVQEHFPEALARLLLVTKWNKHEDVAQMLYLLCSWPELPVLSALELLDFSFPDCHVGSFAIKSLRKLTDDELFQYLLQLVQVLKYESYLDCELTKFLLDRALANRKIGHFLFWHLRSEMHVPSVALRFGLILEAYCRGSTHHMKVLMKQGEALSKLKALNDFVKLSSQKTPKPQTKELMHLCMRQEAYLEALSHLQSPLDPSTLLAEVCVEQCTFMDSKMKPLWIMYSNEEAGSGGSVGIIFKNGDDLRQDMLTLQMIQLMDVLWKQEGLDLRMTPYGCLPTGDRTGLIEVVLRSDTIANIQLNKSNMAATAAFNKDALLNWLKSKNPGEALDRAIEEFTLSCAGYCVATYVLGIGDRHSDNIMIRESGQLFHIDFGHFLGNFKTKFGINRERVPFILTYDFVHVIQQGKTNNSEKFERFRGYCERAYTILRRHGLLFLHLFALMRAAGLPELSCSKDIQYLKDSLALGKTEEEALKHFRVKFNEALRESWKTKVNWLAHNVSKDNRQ
PI3K (p110δ/p85α), sequence (P27986 whole entry partner): as the sequence (P27986 whole entry partner) above
PI3K (p110α/p85α), sequence (P42336 whole entry): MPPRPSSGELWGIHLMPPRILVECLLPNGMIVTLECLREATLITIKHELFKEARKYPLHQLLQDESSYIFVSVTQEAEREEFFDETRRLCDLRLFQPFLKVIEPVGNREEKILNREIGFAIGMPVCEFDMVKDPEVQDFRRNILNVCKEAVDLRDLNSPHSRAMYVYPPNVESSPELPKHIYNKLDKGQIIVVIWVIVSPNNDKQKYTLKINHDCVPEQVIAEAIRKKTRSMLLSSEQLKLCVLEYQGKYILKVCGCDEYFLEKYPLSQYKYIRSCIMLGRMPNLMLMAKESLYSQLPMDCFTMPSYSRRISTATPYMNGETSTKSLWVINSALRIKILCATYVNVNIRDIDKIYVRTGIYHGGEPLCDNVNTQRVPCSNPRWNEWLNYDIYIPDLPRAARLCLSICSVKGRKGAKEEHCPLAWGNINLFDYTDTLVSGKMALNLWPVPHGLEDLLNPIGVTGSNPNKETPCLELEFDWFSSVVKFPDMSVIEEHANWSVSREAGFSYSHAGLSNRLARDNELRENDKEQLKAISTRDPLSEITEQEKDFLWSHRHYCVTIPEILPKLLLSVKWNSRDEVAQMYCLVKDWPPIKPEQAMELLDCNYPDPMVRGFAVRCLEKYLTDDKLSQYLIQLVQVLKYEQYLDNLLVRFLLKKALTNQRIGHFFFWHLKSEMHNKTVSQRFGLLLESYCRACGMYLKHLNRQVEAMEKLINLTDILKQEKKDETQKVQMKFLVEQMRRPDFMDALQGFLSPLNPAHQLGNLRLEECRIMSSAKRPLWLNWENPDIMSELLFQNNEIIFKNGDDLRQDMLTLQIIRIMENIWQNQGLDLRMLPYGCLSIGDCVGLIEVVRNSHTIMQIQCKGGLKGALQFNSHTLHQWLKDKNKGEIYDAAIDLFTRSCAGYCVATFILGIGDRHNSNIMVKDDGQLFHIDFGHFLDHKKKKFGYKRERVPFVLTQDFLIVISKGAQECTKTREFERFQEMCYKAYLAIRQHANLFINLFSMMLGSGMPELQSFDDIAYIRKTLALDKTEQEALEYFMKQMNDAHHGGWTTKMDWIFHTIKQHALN
PI3K (p110α/p85α), sequence (P27986 whole entry partner): as the sequence (P27986 whole entry partner) above
PI3K (p110γ), sequence (P48736 whole entry): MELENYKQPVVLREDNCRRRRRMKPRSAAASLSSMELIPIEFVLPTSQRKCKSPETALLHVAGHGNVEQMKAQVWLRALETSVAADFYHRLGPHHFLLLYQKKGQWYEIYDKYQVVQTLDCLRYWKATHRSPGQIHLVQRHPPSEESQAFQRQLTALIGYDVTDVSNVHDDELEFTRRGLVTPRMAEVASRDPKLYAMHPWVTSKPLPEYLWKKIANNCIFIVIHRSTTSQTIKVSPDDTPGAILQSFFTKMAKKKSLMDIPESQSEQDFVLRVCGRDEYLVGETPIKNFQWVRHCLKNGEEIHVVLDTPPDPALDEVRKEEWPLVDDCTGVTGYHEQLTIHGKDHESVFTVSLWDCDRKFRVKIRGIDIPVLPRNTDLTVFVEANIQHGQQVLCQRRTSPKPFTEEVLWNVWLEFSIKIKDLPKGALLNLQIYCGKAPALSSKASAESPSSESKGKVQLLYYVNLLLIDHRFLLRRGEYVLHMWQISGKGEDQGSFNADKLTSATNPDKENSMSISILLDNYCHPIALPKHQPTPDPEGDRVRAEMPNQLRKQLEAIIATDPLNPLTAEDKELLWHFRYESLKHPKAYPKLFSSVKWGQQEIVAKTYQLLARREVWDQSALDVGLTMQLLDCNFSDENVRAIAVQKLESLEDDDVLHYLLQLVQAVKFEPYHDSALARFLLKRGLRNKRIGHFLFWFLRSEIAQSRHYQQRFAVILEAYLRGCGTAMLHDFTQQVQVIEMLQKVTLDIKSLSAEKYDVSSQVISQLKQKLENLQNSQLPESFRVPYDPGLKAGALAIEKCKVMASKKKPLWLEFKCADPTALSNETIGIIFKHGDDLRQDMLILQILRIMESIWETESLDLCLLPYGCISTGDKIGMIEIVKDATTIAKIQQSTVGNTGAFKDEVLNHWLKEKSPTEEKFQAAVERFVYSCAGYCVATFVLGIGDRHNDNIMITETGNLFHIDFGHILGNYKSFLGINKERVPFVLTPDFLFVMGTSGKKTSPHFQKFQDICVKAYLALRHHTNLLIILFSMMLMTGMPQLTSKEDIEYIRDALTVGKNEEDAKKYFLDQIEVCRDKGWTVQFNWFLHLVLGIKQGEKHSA

As to `Cc1nc(C(C)c2cc(Cl)c(F)c(C(=O)N3CCOCC3)c2OC(C)C)n2ccnc(N)c12` (single isomer, unassigned) [Compound 4A], the 50% inhibitory concentration (IC50) at PI3K (p110α/p85α) was determined as 13000 nM; at PI3K (p110γ), 2000 nM; at PI3K (p110δ/p85α) it was 1 nM. Moreover, the pIC50 on PI3K (p110β/p85α) is 4.96.
As for `Cc1nc(C(C)c2cc(Cl)c(F)c(C(=O)N3CCOCC3)c2OC(C)C)n2ccnc(N)c12` (single isomer, unassigned) [Compound 4B], the IC50 at PI3K (p110δ/p85α) is over 1000 nM.
`Cc1nc(C(C)c2cc(Cl)c(F)c(C(=O)N3CCC(F)(F)CC3)c2OC(C)C)n2ccnc(N)c12` (single isomer, unassigned) [Compound 13A]: the 50% inhibitory concentration (IC50) at PI3K (p110α/p85α) worked out at 20000 nM; at PI3K (p110γ), 9300 nM; on PI3K (p110δ/p85α) it was 3 nM. Besides, the pIC50 at PI3K (p110β/p85α) was under 4.30.
Take `Cc1nc(C(C)c2cc(Cl)c(F)c(C(=O)N3CCC(F)(F)CC3)c2OC(C)C)n2ccnc(N)c12` (single isomer, unassigned) [Compound 13B]: at PI3K (p110δ/p85α), the half-inhibitory concentration (IC50) was over 1000 nM.
In the case of `Cc1nc(C(C)c2cc(Cl)c(F)c(C(=O)N[C@H]3CC[C@@H](O)C3)c2OC(C)C)n2ccnc(N)c12` (single isomer, unassigned) [Compound 14A], the 50% inhibitory concentration (IC50) was 18000 nM on PI3K (p110α/p85α), 7900 nM at PI3K (p110γ) and 1.4 nM at PI3K (p110δ/p85α). The pIC50 on PI3K (p110β/p85α) is 4.89.
In the case of `Cc1nc(C(C)c2cc(Cl)c(F)c(C(=O)N[C@H]3CC[C@@H](O)C3)c2OC(C)C)n2ccnc(N)c12` (single isomer, unassigned) [Compound 14B], the 50% inhibitory concentration (IC50) at PI3K (p110δ/p85α) amounted to 320 nM.
Turning to `Cc1nc(C(C)c2cc(Cl)c(F)c(C(=O)N3CC(C(=O)O)C3)c2OC(C)C)n2ccnc(N)c12` (stereo not drawn) [Compound 1, 1-(3-(1-(8-amino-1-methylimidazo[1,5-a]pyrazin-3-yl)ethyl)-5-chloro-6-fluoro-2-isopropoxybenzoyl)azetidine-3-carboxylic acid], the concentration for half-maximal inhibition (IC50) was over 50000 nM at PI3K (p110α/p85α), 9800 nM on PI3K (p110γ) and 9.7 nM at PI3K (p110δ/p85α). In addition, the negative logarithm of the IC50 (pIC50) at PI3K (p110β/p85α) is under 4.30.
Taken in the same sequence, the figures for `Cc1nc(C(C)c2cc(Cl)c(F)c(C(=O)NC3(C(=O)O)CC3)c2OC(C)C)n2ccnc(N)c12` (stereo not drawn) [Compound 2, 1-(3(1-(8-amino-1-methylimidazo[1,5-a]pyrazin-3-yl)ethyl)-5-chloro-6-fluoro-2-isopropoxybenzamido)cyclopropane-1-carboxylic acid] were over 50000 nM, 5500 nM, 14 nM and under 4.30.
On to `Cc1nc(C(C)c2cc(Cl)c(F)c(C(=O)NC3(CO)CC3)c2OC(C)C)n2ccnc(N)c12` (stereo not drawn) [Compound 5, 3-(1-(8-amino-1-methylimidazo[1,5-a]pyrazin-3-yl)ethyl)-5-chloro-6-fluoro-N-(1-(hydroxymethyl)cyclopropyl)-2-isopropoxybenzamide], for which the 50% inhibitory concentration (IC50) at PI3K (p110α/p85α) came out at 56000 nM; at PI3K (p110γ) it was 10000 nM. Moreover, at PI3K (p110β/p85α), the negative-log IC50 (pIC50) is 4.80.
Taken in the same sequence, the figures for `Cc1nc([C@@H](C)c2cc(Cl)c(F)c(C(=O)NC3(CO)CC3)c2OC(C)C)n2ccnc(N)c12` [Compound 5A] were 21000 nM, 6300 nM and 4.70.
For `Cc1nc([C@@H](C)c2cc(Cl)c(F)c(C(=O)N3CCC[C@H](O)C3)c2OC(C)C)n2ccnc(N)c12` [Compound 20, (3-((S)-1-(8-amino-1-methylimidazo[1,5-a]pyrazin-3-yl)ethyl)-5-chloro-6-fluoro-2-isopropoxyphenyl)((S)-3-hydroxypiperidin-1-yl)methanone], on PI3K (p110δ/p85α), the IC50 is 2.1 nM.
Take `Cc1nc([C@@H](C)c2cc(Cl)c(F)c(C(=O)N[C@H](C)c3ccccc3)c2OC(C)C)n2ccnc(N)c12` [Compound 22, 3-((S)-1-(8-amino-1-methylimidazo[1,5-a]pyrazin-3-yl)ethyl)-5-chloro-6-fluoro-2-isopropoxy-N-((R)-1-phenylethyl)benzamide]: at PI3K (p110δ/p85α), the concentration for half-maximal inhibition (IC50) was found to be 3.7 nM.
Same read-out and setting: with `Cc1nc([C@@H](C)c2cc(Cl)c(F)c(C(=O)N[C@@H]3CCC[C@@H]3O)c2OC(C)C)n2ccnc(N)c12` [Compound 23, 3((S)-1-(8-amino-1-methylimidazo[1,5-a]pyrazin-3-yl)ethyl)-5-chloro-6-fluoro-N-((1R,2S)-2-hydroxycyclopentyl)-2-isopropoxybenzamide] the figure was 9.9 nM; with `Cc1nc([C@@H](C)c2cc(Cl)c(F)c(C(=O)N(C)C)c2OC(C)C)n2ccnc(N)c12` [Compound 32, (S)-3-(1-(8-amino-1-methylimidazo[1,5-a]pyrazin-3-yl)ethyl)-5-chloro-6-fluoro-2-isopropoxy-N,N-dimethylbenzamide], 3.2 nM; with `Cc1nc([C@@H](C)c2cc(Cl)c(F)c(C(=O)N[C@]3(C)CC[C@@H](O)CC3)c2OC(C)C)n2ccnc(N)c12` [Compound 40, 3-((S)-1-(8-amino-1-methylimidazo[1,5-a]pyrazin-3-yl)ethyl)-5-chloro-6-fluoro-N-((1R,4S)-4-hydroxy-1-methylcyclohexyl)-2-isopropoxybenzamide], 6.5 nM.
With `Cc1nc([C@@H](C)c2cc(Cl)c(F)c(C(=O)N[C@@H]3CCCC[C@@H]3O)c2OC(C)C)n2ccnc(N)c12` [Compound 48, 3-((S)-1-(8-amino-1-methylimidazo[1,5-a]pyrazin-3-yl)ethyl)-5-chloro-6-fluoro-N-((1R,2S)-2-hydroxycyclohexyl)-2-isopropoxybenzamide], the IC50 at PI3K (p110δ/p85α) stood at 9.1 nM.
Regarding `Cc1nc([C@@H](C)c2cc(Cl)c(F)c(C(=O)N[C@@H]3CCCC[C@H]3O)c2OC(C)C)n2ccnc(N)c12` [Compound 49, 3-((S)-1-(8-amino-1-methylimidazol[1,5-a]pyrazin-3-yl)ethyl)-5-chloro-6-fluoro-N-((1R,2R)-2-hydroxycyclohexyl)-2-isopropoxybenzamide], at PI3K (p110δ/p85α), the IC50 worked out at 3.9 nM.
On the same count and under the same terms, with `Cc1nc([C@@H](C)c2cc(Cl)c(F)c(C(=O)NC3(CN(C)C)CC3)c2OC(C)C)n2ccnc(N)c12` [Compound 54, (S)-3-(1-(8-amino-1-methylimidazo[1,5-a]pyrazin-3-yl)ethyl)-5-chloro-N-(1-((dimethylamino)methyl)cyclopropyl)-6-fluoro-2-isopropoxybenzamide] the figure was 11 nM.
In the case of `CO[C@H]1CCCN(C(=O)c2c(F)c(Cl)cc([C@H](C)c3nc(C)c4c(N)nccn34)c2OC(C)C)C1` [Compound 65, (3-((S)-1-(8-amino-1-methylimidazo[1,5-a]pyrazin-3-yl)ethyl)-5-chloro-6-fluoro-2-isopropoxyphenyl)((S)-3-methoxypiperidin-1-yl)methanone], the results for the IC50 on PI3K (p110γ) and on PI3K (p110δ/p85α) were 6900 nM and 2.9 nM, respectively. Also, the negative logarithm of the IC50 (pIC50) at PI3K (p110β/p85α) was under 4.30.
With `Cc1nc([C@@H](C)c2cc(Cl)c(F)c(C(=O)N3C[C@@H](C)O[C@@H](C)C3)c2OC(C)C)n2ccnc(N)c12` [Compound 67, (3-((S)-1-(8-amino-1-methylimidazo[1,5-a]pyrazin-3-yl)ethyl)-5-chloro-6-fluoro-2-isopropoxyphenyl)((2R,6S)-2,6-dimethylmorpholino)methanone], at PI3K (p110δ/p85α), the concentration for half-maximal inhibition (IC50) was determined as 8 nM.
On the same count and under the same terms, with `Cc1nc([C@@H](C)c2cc(Cl)c(F)c(C(=O)N[C@H](C)[C@@H](C)O)c2OC(C)C)n2ccnc(N)c12` [Compound 72, 3-((S)-1-(8-amino-1-methylimidazo[1,5-a]pyrazin-3-yl)ethyl)-5-chloro-6-fluoro-N-((2R,3R)-3-hydroxybutan-2-yl)-2-isopropoxybenzamide] the figure was 6.8 nM.
